32 compounds from US20130217664A1, “NOVEL COMPOUNDS USEFUL FOR THE TREATMENT OF DEGENERATIVE AND INFLAMMATORY DISEASES” (priority 2012, published 2013) can be followed below.

Where two headings read alike, the source gives them in different places.

One assay concerns the target T1, human TYK2 (Homo sapiens, UniProt P29597).
T1 construct: catalytic domain (amino acids 871-1187; catalog number 08-147); purchased Carna Biosciences 08-147
T1 sequence (P29597 871-1187): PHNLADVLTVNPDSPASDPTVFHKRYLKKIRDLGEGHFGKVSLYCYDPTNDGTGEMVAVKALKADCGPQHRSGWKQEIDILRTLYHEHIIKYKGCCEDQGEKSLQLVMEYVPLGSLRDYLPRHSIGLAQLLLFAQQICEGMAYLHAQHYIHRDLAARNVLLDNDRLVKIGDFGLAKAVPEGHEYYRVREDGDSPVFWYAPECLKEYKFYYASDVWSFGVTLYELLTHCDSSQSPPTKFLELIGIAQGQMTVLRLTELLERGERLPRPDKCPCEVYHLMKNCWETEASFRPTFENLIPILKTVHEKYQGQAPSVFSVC
As to the kind of experiment: TYK2 inhibition assay. Format: biochemical. Particulars: recombinant human TYK2 catalytic domain, polyGT substrate. An outline of the steps: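 Radiometric kinase reaction run 90 min at 30 °C, stopped with phosphoric acid, washed and scintillation-counted.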

In assay [1] the test system is pSTAT1(2)-luciferase reporter in HeLa cells triggered with human OSM. The assay can be described thus: JAK-STAT signalling assay. Format: cell-based. Particulars: read-out: JAK-STAT IC50. The essentials: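 Compound added 60 min before 33 ng/mL (final) human OSM; after overnight stimulation at 37 °C, luciferase signal from a transiently transfected pSTAT1(2) reporter in HeLa cells was read, with LacZ as internal control. EC50 derived from percent-inhibition dose-response curves.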

Where [2] appears, read: Homo sapiens, HeLa, HeLa cells, pSTAT1(2)-luciferase reporter, human OSM 33 ng/mL.
[3] abbreviates: HeLa cells, pSTAT1(2)-luciferase reporter, human OSM 33 ng/mL.

Regarding `CCc1cc(C(=O)NC)ccc1N(C)c1cc2c(cn1)ncn2C` [Compound 85], the IC50 at human TYK2 was 101 to 500 nM; in assay [1] (setting [2]), more than 1000 nM.
As for `CCc1cc(C(=O)NCc2ccccc2)ccc1N(C)c1cc2c(cn1)ncn2C` [Compound 98, N-benzyl-3-ethyl-4-(methyl(1-methyl-1H-imidazo[4,5-c]pyridin-6-yl)amino)benzamide], the IC50 at human TYK2 is 501 to 1000 nM; in assay [1] (setting [2]) it was more than 1000 nM.
On to `CCc1ccccc1N(CC(F)F)c1cc2c(cn1)ncn2C` [Compound 463, N-(2,2-difluoroethyl)-N-(2-ethylphenyl)-1-methyl-1H-imidazo[4,5-c]pyridin-6-amine], for which the IC50 on human TYK2 is 0.01 to 100 nM; in assay [1] (setting [3]) it was more than 1000 nM.
`CCc1cc(F)ccc1N(C)c1cc2c(cn1)ncn2C` [Compound 28, N-(2-Ethyl-4-fluorophenyl)-N,1-dimethyl-1H-imidazo[4,5-c]pyridin-6-amine]: the IC50 at human TYK2 was 101 to 500 nM; in assay [1] (setting [2]), more than 1000 nM.
`Cc1ccc(OCc2ccc(Cl)cc2)cc1N(C)c1cc2c(cn1)ncn2C` [Compound 62, N-(5-(4-chlorobenzyloxy)-2-methylphenyl)-N,1-dimethyl-1H-imidazo[4,5-c]pyridin-6-amine]: the concentration for half-maximal inhibition (IC50) (on human TYK2; in assay [1] (setting [3])) was more than 1000 nM in each case.
With `Cc1cc(OCCCC#N)ccc1N(C)c1cc2c(cn1)ncn2C` [Compound 48, 4-(3-methyl-4-(methyl(1-methyl-1H-imidazo[4,5-c]pyridin-6-yl)amino)phenoxy)butane nitrile], the IC50 at human TYK2 is 501 to 1000 nM; in assay [1] (setting [2]) it was more than 1000 nM.
As for `Cc1ccc(Oc2ccc(C#N)nc2)cc1N(C)c1cc2c(cn1)ncn2C` [Compound 91, 5-(4-methyl-3-(methyl(1-methyl-1H-imidazo[4,5-c]pyridin-6-yl)amino)phenoxy)picolino-nitrile], the IC50 (on human TYK2; in assay [1] (setting [3])) was more than 1000 nM in each case.
Turning to `CCc1cc(-c2ccsc2)ccc1N(C)c1cc2c(cn1)ncn2C` [Compound 127, N-(2-ethyl-4-(thiophen-3-yl)phenyl)-N,1-dimethyl-1H-imidazo[4,5-c]pyridin-6-amine], the IC50 on human TYK2 lay in the range of 0.01 to 100 nM; in assay [1] (setting [2]), 1 to 500 nM.
Consider `CCNC(=O)c1ccc(N(C)c2cc3c(cn2)ncn3C)c(CC)c1` [Compound 102, N,3-diethyl-4-(methyl(1-methyl-1H-imidazo[4,5-c]pyridin-6-yl)amino)benzamide], for which the IC50 at human TYK2 is 101 to 500 nM; in assay [1] (setting [2]) it was more than 1000 nM.
With `CNC(=O)c1ccc(N(C)c2cc3c(cn2)ncn3C)c(C)c1` [Compound 30, N,3-Dimethyl-4-(methyl(1-methyl-1H-imidazo[4,5-c]pyridin-6-yl)amino)-benzamide], the 50% inhibitory concentration (IC50) (on human TYK2; in assay [1] (setting [2])) was more than 1000 nM throughout.
Regarding `COc1cc(-c2c(C)nn(C)c2C)ncc1N(C)c1cc2c(cn1)ncn2C` [Compound 312], the half-maximal inhibitory concentration (IC50) (on human TYK2; in assay [1] (setting [3])) was more than 1000 nM in each case.
Take `CCc1ccc(C(=O)NC(C)(C)C)cc1N(C)c1cc2c(cn1)ncn2C` [Compound 123, N-tert-butyl-4-ethyl-3-(methyl(1-methyl-1H-imidazo[4,5-c]pyridin-6-yl)amino)benzamide]: the IC50 (on human TYK2; in assay [1] (setting [2])) was more than 1000 nM in each case.
Take `CCc1cc(C#N)cc(F)c1N(C)c1cc2c(cn1)ncn2C` [Compound 322, 3-Ethyl-5-fluoro-4-[methyl-(1-methyl-M-imidazo[4,5-c]pyridin-6-yl)-amino]-benzonitrile]: the IC50 at human TYK2 is 101 to 500 nM; in assay [1] (setting [2]) it was more than 1000 nM.
For `CCc1cc(OC2CCN(S(C)(=O)=O)C2)ccc1N(C)c1cc2c(cn1)ncn2C` (stereo not shown) [Compound 110, N-(2-Ethyl-4-((1-(methylsulfonyl)pyrrolidin-3-yl)oxy)phenyl)-N,1-dimethyl-1H-imidazo[4,5-c]pyridin-6-amine], in that order: 0.01 to 100 nM and more than 1000 nM.
Consider `CCc1cc(C(=O)OC)ccc1N(C)c1cc2c(cn1)ncn2C` [Compound 80, Methyl 3-ethyl-4-(methyl(1-methyl-1H-imidazo[4,5-c]pyridin-6-yl)amino)benzoate], for which the IC50 at human TYK2 was 101 to 500 nM; in assay [1] (setting [2]) it was more than 1000 nM.
`CCc1cc(C2CN(S(=O)(=O)C(C)C)C2)ncc1N(C)c1cc2c(cn1)ncn2C` [Compound 330, {4-Ethyl-6-[1-(propane-2-sulfonyl)-azetidin-3-yl]-pyridin-3-yl}-methyl-(1-methyl-1H-imidazo[4,5-c]pyridin-6-yl)-amine]: the IC50 (on human TYK2; in assay [1] (setting [3])) was more than 1000 nM throughout.
Turning to `CCc1cc(CNC(=O)C(F)F)c(F)cc1N(C)c1cc2c(cn1)ncn2C` [Compound 326, N-{5-Ethyl-2-fluoro-4-[methyl-(1-methyl-M-imidazo[4,5-c]pyridin-6-yl)-amino]-benzyl}-2,2-difluoro-acetamide], the IC50 at human TYK2 was in the range of 101 to 500 nM; in assay [1] (setting [2]), 501 to 1000 nM.
For `CN(c1cc2c(cn1)ncn2C)c1ccc(CNC(=O)C(F)F)cc1F` [Compound 320], in that order: 101 to 500 nM and more than 1000 nM.
Consider `Cc1ccc(OCc2ccccc2)cc1N(C)c1cc2c(cn1)ncn2C` [Compound 56, N-(5-(benzyloxy)-2-methylphenyl)-N,1-dimethyl-1H-imidazo[4,5-c]pyridin-6-amine], for which the IC50 (on human TYK2; in assay [1] (setting [3])) was more than 1000 nM throughout.
As for `COc1cc(S(=O)(=O)N2CCOCC2)ccc1N(C)c1cc2c(cn1)ncn2C` [Compound 315, [2-Methoxy-4-(morpholine-4-sulfonyl)-phenyl]-methyl-(1-methyl-1H-imidazo[4,5-d]pyridin-6-yl)-amine], the IC50 (at human TYK2; in assay [1] (setting [3])) was more than 1000 nM throughout.
On to `CCc1cc(C(C)(C)O)ccc1N(C)c1cc2c(cn1)ncn2C` [Compound 103, 2-(3-Ethyl-4-(methyl(1-methyl-1H-imidazo[4,5-c]pyridin-6-yl)amino)phenyl)propan-2-ol], for which the IC50 was 0.01 to 100 nM at human TYK2 and more than 1000 nM in assay [1] (setting [2]).
Consider `COc1ccc(COc2ccc(C)c(N(C)c3cc4c(cn3)ncn4C)c2)cc1` [Compound 43, N-(5-(4-methoxybenzyloxy)-2-methylphenyl)-N,1-dimethyl-1H-imidazo[4,5-c]pyridin-6-amine], for which the IC50 (on human TYK2; in assay [1] (setting [3])) was more than 1000 nM each time.
As for `CCc1cc(-c2cccnc2)ccc1N(C)c1cc2c(cn1)ncn2C` [Compound 94, N-(2-ethyl-4-(pyridin-3-yl)phenyl)-N,1-dimethyl-1H-imidazo[4,5-c]pyridin-6-amine], the IC50 at human TYK2 lay within 0.01 to 100 nM; in assay [1] (setting [2]) it was 1 to 500 nM.
For `CN(c1cc2c(cn1)ncn2C)c1ccccc1OC(F)F` [Compound 39, N-(2-(difluoromethoxy)phenyl)-N,1-dimethyl-1H-imidazo[4,5-c]pyridin-6-amine], in that order: 501 to 1000 nM and more than 1000 nM.
As to `CCc1ccccc1N(CC)c1cc2c(cn1)ncn2C` [Compound 34, N-Ethyl-N-(2-ethylphenyl)-1-methyl-1H-imidazo[4,5-c]pyridin-6-amine], the IC50 on human TYK2 was 0.01 to 100 nM; in assay [1] (Homo sapiens, HeLa), more than 1000 nM.
In the case of `CCc1cc(C(=O)NCC#N)ccc1N(C)c1cc2c(cn1)ncn2C` [Compound 120, N-(cyanomethyl)-3-ethyl-4-(methyl(1-methyl-1H-imidazo[4,5-c]pyridin-6-yl)amino)benzamide], the half-inhibitory concentration (IC50) is 101 to 500 nM at human TYK2 and more than 1000 nM in assay [1] (setting [2]).
`Cc1cc(CO)ccc1N(C)c1cc2c(cn1)ncn2C` [Compound 29, (3-Methyl-4-(methyl(1-methyl-1H-imidazo[4,5-c]pyridin-6-yl)amino)phenyl) MeOH]: the values for the IC50 (on human TYK2; in assay [1] (setting [2])) were 501 to 1000 nM and more than 1000 nM, respectively.
For `Cc1ccc(OCC(C)C)cc1N(C)c1cc2c(cn1)ncn2C` [Compound 63, N-(5-isobutoxy-2-methylphenyl)-N,1-dimethyl-1H-imidazo[4,5-c]pyridin-6-amine], in that order: more than 1000 nM and more than 1000 nM.
For `Cc1ccc(OCCCC#N)cc1N(C)c1cc2c(cn1)ncn2C` [Compound 60, 4-(4-methyl-3-(methyl(1-methyl-1H-imidazo[4,5-c]pyridin-6-yl)amino)phenoxy)butane nitrile], in that order: 501 to 1000 nM and more than 1000 nM.
`COc1cc(N2CCOCC2)ncc1N(C)c1cc2c(cn1)ncn2C` [Compound 313, (4-Methoxy-6-morpholin-4-yl-pyridin-3-yl)-methyl-(1-methyl-1H-imidazo[4,5-c]pyridine-6-yl)-amine]: the IC50 is 101 to 500 nM on human TYK2 and more than 1000 nM in assay [1] (setting [3]).
In the case of `Cc1cc(O)ccc1N(C)c1cc2c(cn1)ncn2C` [Compound 38, 3-Methyl-4-(methyl(1-methyl-1H-imidazo[4,5-c]pyridin-6-yl)amino)phenol], the figures for the IC50 (on human TYK2; in assay [1] (setting [2])) were 101 to 500 nM and more than 1000 nM, respectively.
For the compound `CCc1cc(C2CN(CC#N)C2)ncc1N(C)c1cc2c(cn1)ncn2C` [Compound 331, (3-{4-Ethyl-5-[methyl-(1-methyl-1H-imidazo[4,5-c]pyridin-6-yl)-amino]-pyridin-2-yl}-azetidin-1-yl)-acetonitrile], the IC50 at human TYK2 was 501 to 1000 nM; in assay [1] (setting [3]), more than 1000 nM.
